# Experimental data reported in patent US11911450B2, “Method for managing pain” (UNIVERSITY OF MIAMI, priority 2017, dated 2024).
# Tests used:
# ITPR1 [1] = target: T1, ITPR1 (Homo sapiens, UniProt Q14643); assay: NGF-induced intracellular calcium release / ITPR1 activation in NBL cells; type: cell-based; design: endogenous in cells; conditions: NBL cells
# [2] = system: RYR-dependent calcium release; assay: 5HT-induced RYR-dependent cytoplasmic calcium release in NBL cells (Fura2 imaging); type: cell-based, human; conditions: for 5HT-induced cytoplasmic calcium release, effect of ryanodine: 50 μM 5HT
# Procedure: Pharmacodynamics—Bioassay of Calcium Release: Fifteen mm glass coverslips (cat #72228 Electron Microscopy Sciences, Hatfield, PA) were coated with poly-D-Lysine (Sigma) followed by Laminin and 1×10^5 cells were seeded on each coverslip. Twenty-four hrs later, cells were transfected with AAV2-ITR, AAV2-V5-Car10, or AAV2-V5-CA10 vectors as previously described. In embodiments wherein AAV2 is not employed, other expression vectors (including viral vectors) are used. Fura-2AM (cat #F1221 ThermoFisher scientific, Waltham, MA) was dissolved in DMSO (50 μg in 50 μl) and 1% pluronic acid-127 (cat #P2443 Sigma, St Louis, MO) as the stock solution. Forty eight hrs after seeding, cells were loaded with 2 μM Fura-2AM dye for 45 min at room temperature in the dark in a standard Ca+2 buffer solution containing: 125 mM NaCl, 2 mM MgCl, 4.5 mM KCl, 10 glucose, 20 mM HEPES, 2 mM CaCl2, pH 7.4.25. Following dye loading, coverslips were washed with Ca^+2 buffer solution. For imaging and ATP stimulation experiments, coverslips were placed in a recording chamber (cat #QR-42LP Warner instruments Hamden, CT) on a Leica DMI6000B microscope, and perfused at room temperature (˜22° C.) with Ca^+2 free buffer solution containing: 125 mM NaCl, 4 mM MgCl, 4.5 mM KCl, 10 mM glucose, 20 mM HEPES, pH 7.4. For the ratiometric imaging of Fura-2AM, the excitation light was filtered through an ultra high-speed wavelength switcher to provide wavelengths of 340 and 384 nm and capture by a high-speed digital camera (Leica DFC365FX). Activation of ITPR1 channels was achieved via application of 1 μM ATP (Sigma, St Louis, MO). Data acquisition and processing was made using the LAXS software. Regions of interest over the field of view were selected and the mean pixels intensity at each frame was measured. Data was plotted as ratio fluorescence intensity versus time and subsequently converted to a relative scale.
# It was also determined that 5HT-induced RYR-dependent calcium release in NBL cells is inhibited by ryanodine. […]
# [3] = system: ITPR1-mediated cytoplasmic calcium release; assay: ATP-induced cytoplasmic calcium release in HEK293 cells (Fura-2 imaging); type: cell-based, human
# Procedure: Cell culture and transfections: Human neuronal-derived (e.g., NBL), human non-neuronal derived (e.g., HEK293) cells, or dispersed rodent primary DRG cells can be used. HEK293 cells (cat #CRL-1573 ATCC Manassas, VA) were cultured in Dulbecco's modified Eagle's medium (DMEM-Glutamax cat #0566; Invitrogen) supplemented with 10% fetal bovine serum, FBS (cat #16140 ThermoFisher scientific, Waltham, MA) and 1% penicillin/streptomycin (cat #15140 ThermoFisher scientific, Waltham, MA). Cells were seeded in six-well plates at density of 1.0×10^5 cells per well. […]
# Pharmacodynamics—Bioassay of Calcium Release: Fifteen mm glass coverslips (cat #72228 Electron Microscopy Sciences, Hatfield, PA) were coated with poly-D-Lysine (Sigma) followed by Laminin and 1×10^5 cells were seeded on each coverslip. […] Regions of interest over the field of view were selected and the mean pixels intensity at each frame was measured. Data was plotted as ratio fluorescence intensity versus time and subsequently converted to a relative scale.
# To further examine whether FLAG-CA8-204 (data not shown), V5-Car10 and V5-CA10 overexpression can inhibit ATP-induced calcium release, HEK293 cells were infected with each if these constructs and real-time intracellular calcium concentrations at baseline and in response to ATP stimulation were measured (FIG. 2). […]
# [4] = morphine dose vs paw withdrawal latency; type: in vivo, mouse; conditions: approximately 30 minutes after intraperitoneal dosing; 10, 30, and 60 mg/kg
# Procedure: Behavioral tests: Thermal and mechanical sensitivity was measured by Hargreaves test and von Frey filament threshold calculations respectively. See, e.g., Boyce-Rustay et al. Methods Mol Biol. 2010; 617:41-55; Hargreaves et al., Pain. 1988; 32(1):77-88; and Chaplan et al., J Neurosci Methods. 1994; 53(1):55-63. Tests were performed in a quiet room with daylight-like illumination. Animals were habituated to the behavioral room and apparatus for at least 60 minutes for 1 week before a blinded investigator collected data. The thermal sensitivity test was performed using an IITC Plantar Analgesia Meter apparatus (IITC Life sciences, Woodland Hills, CA) with a plastic box placed on a glass plate of constant temperature (30° C.). The mouse plantar surface was exposed to a beam of radiant heat to induced paw withdrawal. Baseline latencies were adjusted to 5-9 sec with a maximum of 20 sec as cutoff to prevent potential injury. The latency time in seconds from the onset of the intense light beam to paw withdrawal was defined as the withdrawal latency of the paw. […] The mouse hind paw was pressed with one of a series of von Frey filaments with logarithmically incrementing stiffness (Stoelting Co, Wood Dale, IL) presented perpendicular to the plantar surface of each hind paw for 1-2 seconds, the 50% threshold was determined using the Up- and Down method.
# ITPR1 [5] = target: T1, ITPR1; assay: NGF-induced intracellular calcium release in HEK293 cells; type: cell-based; design: endogenous in cells; host or cells: HEK293 (ATCC CRL-1573); conditions: data not shown
# T1 sequence (Q14643 whole entry): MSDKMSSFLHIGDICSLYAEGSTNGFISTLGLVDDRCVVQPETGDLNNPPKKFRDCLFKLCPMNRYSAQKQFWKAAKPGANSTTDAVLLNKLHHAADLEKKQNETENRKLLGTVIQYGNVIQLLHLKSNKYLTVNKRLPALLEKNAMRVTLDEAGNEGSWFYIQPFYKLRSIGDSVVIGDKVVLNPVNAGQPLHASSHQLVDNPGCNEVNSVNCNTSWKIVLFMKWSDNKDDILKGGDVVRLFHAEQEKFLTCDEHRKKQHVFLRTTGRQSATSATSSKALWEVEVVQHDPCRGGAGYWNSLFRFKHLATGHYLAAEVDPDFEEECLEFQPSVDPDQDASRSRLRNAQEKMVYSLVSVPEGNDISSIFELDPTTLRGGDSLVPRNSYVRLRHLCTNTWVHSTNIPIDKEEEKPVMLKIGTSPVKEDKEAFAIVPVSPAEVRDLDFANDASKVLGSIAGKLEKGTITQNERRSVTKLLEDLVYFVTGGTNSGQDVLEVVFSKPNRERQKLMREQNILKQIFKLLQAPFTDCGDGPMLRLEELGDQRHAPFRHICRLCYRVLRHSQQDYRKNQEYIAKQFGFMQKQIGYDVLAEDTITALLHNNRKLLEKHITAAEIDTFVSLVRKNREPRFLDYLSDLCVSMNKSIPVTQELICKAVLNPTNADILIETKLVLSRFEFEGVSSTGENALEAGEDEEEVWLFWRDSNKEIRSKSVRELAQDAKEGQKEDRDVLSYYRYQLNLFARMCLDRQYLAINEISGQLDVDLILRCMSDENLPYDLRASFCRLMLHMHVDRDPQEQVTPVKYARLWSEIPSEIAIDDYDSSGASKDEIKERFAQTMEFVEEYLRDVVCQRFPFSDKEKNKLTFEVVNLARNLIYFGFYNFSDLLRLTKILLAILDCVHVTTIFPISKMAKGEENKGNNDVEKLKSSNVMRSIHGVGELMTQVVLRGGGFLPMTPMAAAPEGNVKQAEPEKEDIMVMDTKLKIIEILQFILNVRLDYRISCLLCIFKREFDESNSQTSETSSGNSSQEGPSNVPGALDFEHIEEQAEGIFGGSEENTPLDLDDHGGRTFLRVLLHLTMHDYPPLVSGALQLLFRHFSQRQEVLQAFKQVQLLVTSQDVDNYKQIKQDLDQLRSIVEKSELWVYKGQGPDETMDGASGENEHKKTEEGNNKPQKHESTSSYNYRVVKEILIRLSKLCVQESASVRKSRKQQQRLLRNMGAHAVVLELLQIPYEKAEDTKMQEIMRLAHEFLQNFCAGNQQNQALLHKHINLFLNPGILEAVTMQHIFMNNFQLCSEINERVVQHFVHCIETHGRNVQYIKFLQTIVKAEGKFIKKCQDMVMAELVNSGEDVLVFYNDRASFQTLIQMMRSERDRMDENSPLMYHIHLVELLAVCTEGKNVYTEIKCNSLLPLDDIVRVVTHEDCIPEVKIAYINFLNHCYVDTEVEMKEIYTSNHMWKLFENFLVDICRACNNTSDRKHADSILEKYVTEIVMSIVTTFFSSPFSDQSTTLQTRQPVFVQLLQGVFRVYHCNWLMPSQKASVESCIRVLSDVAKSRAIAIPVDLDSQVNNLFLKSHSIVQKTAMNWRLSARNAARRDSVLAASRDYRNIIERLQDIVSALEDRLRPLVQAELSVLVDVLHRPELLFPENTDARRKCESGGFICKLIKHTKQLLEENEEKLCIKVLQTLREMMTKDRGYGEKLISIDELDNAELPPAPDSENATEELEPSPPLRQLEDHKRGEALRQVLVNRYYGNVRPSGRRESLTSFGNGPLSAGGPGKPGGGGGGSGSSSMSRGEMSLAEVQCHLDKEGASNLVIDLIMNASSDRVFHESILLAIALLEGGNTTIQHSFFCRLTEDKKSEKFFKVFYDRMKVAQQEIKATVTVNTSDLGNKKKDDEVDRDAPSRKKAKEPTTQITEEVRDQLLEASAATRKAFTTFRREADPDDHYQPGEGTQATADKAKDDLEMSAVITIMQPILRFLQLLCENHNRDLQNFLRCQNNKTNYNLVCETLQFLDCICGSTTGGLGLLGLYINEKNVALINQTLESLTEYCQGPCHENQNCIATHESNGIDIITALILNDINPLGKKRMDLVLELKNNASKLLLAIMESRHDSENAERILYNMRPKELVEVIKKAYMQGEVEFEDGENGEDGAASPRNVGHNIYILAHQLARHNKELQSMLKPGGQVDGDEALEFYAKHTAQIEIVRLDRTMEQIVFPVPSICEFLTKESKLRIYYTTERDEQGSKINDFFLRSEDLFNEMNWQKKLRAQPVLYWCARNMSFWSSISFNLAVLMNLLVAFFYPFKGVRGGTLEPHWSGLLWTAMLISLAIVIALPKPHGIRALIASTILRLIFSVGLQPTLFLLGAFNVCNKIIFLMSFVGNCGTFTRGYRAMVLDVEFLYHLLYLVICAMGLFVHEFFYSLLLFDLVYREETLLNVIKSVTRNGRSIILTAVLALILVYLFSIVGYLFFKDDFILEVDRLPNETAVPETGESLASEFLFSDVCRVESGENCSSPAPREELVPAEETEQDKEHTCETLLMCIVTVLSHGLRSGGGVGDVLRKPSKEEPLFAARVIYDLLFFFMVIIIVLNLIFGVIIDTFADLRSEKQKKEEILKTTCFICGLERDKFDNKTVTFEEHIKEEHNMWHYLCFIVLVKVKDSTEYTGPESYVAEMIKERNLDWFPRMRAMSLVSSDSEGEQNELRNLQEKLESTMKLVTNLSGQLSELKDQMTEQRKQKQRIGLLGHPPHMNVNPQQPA
compound,measurement,setting,value
"NCCOB(c1ccccc1)c1ccccc1 [2-APB, reference compound]",NGF-induced intracellular calcium release,ITPR1 [1],nearly completely inhibited
"NCCc1c[nH]c2ccc(O)cc12 [5HT, reference compound]",effect of 5HT on calcium release,[2],stimulates calcium release
"Nc1ncnc2c1ncn2[C@@H]1O[C@H](COP(=O)(O)OP(=O)(O)OP(=O)(O)O)[C@@H](O)[C@H]1O [ATP, reference compound]",effect of ATP on cytosolic free calcium,[3],stimulated calcium release and an increase in cytosolic free calcium levels in a dose-dependent manner
"CN1CC[C@]23c4c5ccc(O)c4O[C@H]2[C@@H](O)C=C[C@H]3[C@H]1C5 [morphine, reference compound]",paw withdrawal latency,[4],Elevations were significant when compared with saline
"NGF: nerve growth factor, stimulant of calcium release",effect of NGF on intracellular calcium release,ITPR1 [5],increased intracellular calcium release
ryanodine [reference compound],"5HT-induced cytoplasmic calcium release, effect of ryanodine",[2]; 10 nM ryanodine,nearly completely inhibited
same,"5HT-induced cytoplasmic calcium release, effect of ryanodine","[2]; dose-dependent, vs vehicle",significantly inhibited
